Publication PMC8901748, “A novel prostaglandin E receptor 4 (EP4) small molecule antagonist induces articular cartilage regeneration” (Cell Discovery, 2022)

How the values were obtained:
[1] = Preliminary pharmacokinetic studies in CD1 mice; format: in vivo
Method: To evaluate the preclinical pharmacokinetic (PK) profiles of compound HL-43 and HL-66, 36 male CD1 mice were randomly divided into four groups for PK studies. […] Blood samples were collected at 0.083, 0.25, 0.5, 1, 2, 4, 8, 12, and 24 h after administration (n = 3). Then the whole blood was centrifuged at 5500 × g for 15 min at 4 °C. After suitable sample preparation, the concentration of HL-43 and HL-66 in plasma sample was determined by Agilent HPLC-MS/MS system (Agilent Technologies, USA). Pharmacokinetic parameters were calculated by WinNonlin software version 7.0 based on non-compartmental analysis (Pharsight Corporation, Mountain View, USA). Mean plasma concentration-time curves were plotted by GraphPad Prism 7.0 (GraphPad Software Inc., CA, USA).

[2] = system: Col2a1, Acan, Mmp3, Mmp9, Mmp13 expression in primary mouse chondrocytes; test: qRT-PCR of anabolic and catabolic factors in primary chondrocytes; format: cell-based
Method: ATDC5 cell line was purchased from Riken BioResource Center (Tsukuba, Japan) and grown in a 1:1 mixture of DMEM/F12 medium (Corning, 10-092-CVR) supplemented with 5% fetal bovine serum (Gibco, 10099, USA) and 1% penicillin-streptomycin solution (Life Technologies). Cells were maintained at 37 °C under 5% CO2. Primary chondrocytes were obtained from knee joint cartilage of newborn mice. Knee joints were dissected from the tibia plateau and femoral condyle articular cartilage of mouse pups and digested in 0.1% collagenase type II (Sigma) overnight at 37 °C and chondrocytes were harvested by centrifugation. Primary chondrocytes were cultured at a density of 5 × 10^3 cells per ml at 37 °C with 5% CO2. DMEM/F12 medium with 10% fetal bovine serum (FBS) and 1% penicillin–streptomycin was used to culture the primary chondrocytes. Chondrogenic differentiation were induced with chondrogenic medium, which contains insulin-transferrin-selenium (ITS) (Sigma, I3146), 10 ng/ml TGF-β3 (PEPROTECH, 100-36E, USA), 100 nM Dexamethasone (Sigma, D4902), 50 μg/ml VC (Sigma), 1 mM sodium pyruvate (Sigma) and 40 μg/ml proline (Sigma), and/or treatment with rmIL-1β (R&D, 401-ML/CF), TNFα (PEPROTECH, 300-01A-50) in DMEM/F12 for indicated days. Western blotting was performed according to standard protocols. Antibodies used were: rabbit anti-Mmp3 (1:1000, HuaBio), rabbit anti-Mmp13 (1:500, abcam, ab39012), rabbit anti-p-CREB (1:2000, Cell Signaling Technology, 87G3), rabbit anti-CREB (1:2000, Cell Signaling Technology, 48H2), mouse anti-GAPDH (1:5000; Sigma-Aldrich, G8795), rabbit anti-Col2 (Abcam, Ab34712), rabbit anti-STAT3 (1:2000; Abcam, ab68153), rabbit anti-p-STAT3 (Y705) (1:2000; Abcam, ab76315), rabbit anti -p65 (1:1000; CST, 3034), rabbit anti-p-p65 (1:1000; CST, 3033), and rabbit anti-IκBα (1:1000; Abways, CY5026).
Quantitative RT-PCR was performed to measure the relative mRNA levels. RNA samples were prepared from the chondrocytes using Trizol (Takara). cDNA was generated using the Prime Script RT reverse transcriptase kit (Yeasen, Drr036a). Primers used for amplification were shown in Supplementary Table S1, GAPDH was used as the house keeping gene.

articular cartilage = test: Aging-induced cartilage defect (CD) mouse model; format: in vivo, mice (strain C57/BL/6); settings: 19-month-old mice, 30 mg/kg daily by gavage for 3 months
Method: WT male mice (strain C57/BL/6) were raised under identical conditions until 19 months. The vehicle, Celecoxib, and HL-43 were administered to mice at 30 mg/kg daily by gavage from 19 to 22 month, n = 9 for vehicle and HL-43-treated groups, n = 6 for Celecoxib treated group.
Knee joints of mice were fixed for 24 h in 4% paraformaldehyde (wt/vol), dehydrated into 100% ethanol, and decalcified for 1 week in 0.5 M EDTA pH 8.0. Paraffin-embedded tissue was sectioned (7 μm) and stained with Safranin O and Hematoxylin & Eosin (H&E) according to standard procedures. The OARSI histologic scoring of OA in the mouse was used to measure the cartilage and synovial damage of OA[71],[77]. Immunohistochemical staining for Col2a1, ColX, Sox9, p-CREB, and CREB were routinely performed and follow previous description. […] Histomorphometry and quantification were performed using ImageJ software. Quantification of Mmp13, ColX, Sox9 positive regions were quantified as the positive area/total cartilage area per field of view under ×40 objective magnification.

[3] = system: cAMP in primary chondrocytes; test: cAMP assay; format: cell-based; settings: primary mouse chondrocytes, 2 h
Method: The cAMP concentration of primary chondrocytes was detected by cAMP dynamic kit (Cisbio, France) following the manufacturer’s instructions. cAMP standards were diluted according to the kit instructions. Cells were treated with HL-43 for 2 h and the relative fold change of cAMP was determined by comparing with the cAMP standard curve.

[4] = system: STAT3 nuclear translocation in ATDC5 cells; test: Immunofluorescence of STAT3 and p-STAT3 subcellular localization; format: cell-based, mouse; settings: HL-43 (30 μM), 5 ng/ml IL-1β, 24 h
gastrointestinal tract = test: Gastrointestinal tract toxicity (data not shown); format: in vivo; settings: compared to Celecoxib

In the case of `C[C@H](NC(=O)c1c(-c2ccccc2)nnn1CCOc1ccc(F)cc1)c1ccc(C(=O)O)cc1` [HL-43], the “AUC0-∞” value ([1]; I.V. (5 mg/kg)) is reported as 917.2 ng·h/mL, the C0 ([1]; I.V. (5 mg/kg)) is reported as 1613.6 ng/mL and the CL ([1]; I.V. (5 mg/kg)) is reported as 18.3 mL/min/kg. The Vd ([1]; I.V. (5 mg/kg)) was 6.3 L/kg, the t1/2 ([1]; I.V. (5 mg/kg)) was 4.0 h and the “AUC0-∞” value ([1]; P.O. (1 mg/kg)) was 1076.1 ng·h/mL. It also gave a CL ([1]; P.O. (1 mg/kg)) of 76.7 mL/min/kg, a Cmax ([1]; P.O. (1 mg/kg)) of 270.2 ng/mL and a Vd ([1]; P.O. (1 mg/kg)) of 21.8 L/kg. The t1/2 ([1]; P.O. (1 mg/kg)) was 3.3 h, the Bioavailability ([1]; oral) was 23.7% and the “EP4 and STAT3 dependent increase in MMP3/13 expression” value ([2]; 2 ng/ml IL-1β, 24 h) was “dose-dependently inhibited”. For the same compound, the “Expression of catabolic factors (Mmp3, Mmp9, and Mmp13)” value ([2]; primary mouse chondrocytes, 1 ng/ml IL-1β, 24 h) was “attenuated the expression of catabolic factors (Mmp3, Mmp9, and Mmp13) in a dose-dependent manner”, the “Expression of anabolic factors (Col2a1 and Acan)” value ([2]; primary mouse chondrocytes, 24 h) was “promoted the expression of anabolic factors” and the “Col2a1 expression (screen of EP4 antagonists)” value ([2]; primary murine chondrocytes, 1 ng/ml IL-1β, 24 hr, EP4 antagonists (2 nM)) was “highest potency in inducing Col2a1 expression”. For the same compound, the “Mmp3 expression (screen of EP4 antagonists)” value ([2]; primary murine chondrocytes, 1 ng/ml IL-1β, 24 hr, EP4 antagonists (30 μM)) was “reducing Mmp3 expression”, the “Cartilage integrity and articular cartilage thickness” value (articular cartilage) was “notably preserved cartilage integrity and had thicker articular cartilage” and the cAMP production [3] was “dose-dependently induced cAMP production”. The “IL-1β-induced nuclear translocation of STAT3 and p-STAT3” value [4] was “suppressed” and the “Toxicity in gastrointestinal tract” value (gastrointestinal tract) was “lower toxicity”.
